Measured values taken from ChEMBL document CHEMBL1141148, “Antidiabetic activity of passive nonsteroidal glucocorticoid receptor modulators” (J Med Chem, 2005).
Where “and” joins values, the source holds several entries; their conditions need not be identical. Identical values can stand only once.

Key:
[1] = species: Mus musculus; assay: Final weight of the ob/ob mice after 13 days of oral treatment at 100 mpk b.i.d.; assay type: functional
[2] = Free levels in ob/ob mice after 13 days of oral dose at 100 mpk b.i.d.; assay type: ADME; conditions: mouse, in vivo, 100 mg/kg, 312 h
[3] = Glucose levels in ob/ob mice after 13 days of oral dose at 10 mpk b.i.d.; assay type: ADME; conditions: mouse, in vivo, 10 mg/kg, 312 h
[4] = Insulin levels in ob/ob mice after 13 days of oral dose at 10 mpk b.i.d.; assay type: ADME; conditions: mouse, in vivo, 10 mg/kg, 312 h
[5] = Glucose levels in ob/ob mice after 13 days of oral dose at 100 mpk b.i.d.; assay type: ADME; conditions: mouse, in vivo, 100 mg/kg, 312 h
[6] = Free fatty acid (FFA) levels in ob/ob mice after 13 days of oral dose at 10 mpk b.i.d.; assay type: ADME; conditions: mouse, in vivo, 10 mg/kg, 312 h
[7] = Alanine aminotransferase (ALT) levels in ob/ob mice after 13 days of oral dose at 10 mpk b.i.d.; assay type: ADME; conditions: mouse, in vivo, 10 mg/kg, 312 h
[8] = Aspartate aminotransferase (AST) levels in ob/ob mice after 13 days of oral dose at 10 mpk b.i.d.; assay type: ADME; conditions: mouse, in vivo, 10 mg/kg, 312 h
[9] = species: Mus musculus; assay: Final weight of the ob/ob mice after 14 days of oral treatment at 30 mpk b.i.d.; assay type: functional
[10] = Plasma protein binding of tritium labeled compound in mouse plasma was determined; assay type: ADME, cell-free; conditions: read-out: Protein binding (converted)
[11] = Liver TAT levels in ob/ob mice after 14 days of oral dose at 30 mpk b.i.d.; assay type: ADME, tissue-based; conditions: mouse, in vivo, 30 mg/kg, 336 h
[12] = Liver TAT levels in ob/ob mice after 14 days of oral dose at 100 mpk b.i.d.; assay type: ADME, tissue-based; conditions: mouse, in vivo, 100 mg/kg, 336 h
[13] = Cholesterol levels in ob/ob mice after 14 days of oral dose at 30 mpk b.i.d.; assay type: ADME; conditions: mouse, in vivo, 30 mg/kg, 336 h
[14] = Cholesterol levels in ob/ob mice after 30 days of oral dose at 100 mpk b.i.d.; assay type: ADME; conditions: mouse, in vivo, 100 mg/kg, 720 h
[15] = Triglyceride levels in ob/ob mice after 30 days of oral dose at 30 mpk b.i.d.; assay type: ADME; conditions: mouse, in vivo, 30 mg/kg, 720 h
[16] = Triglyceride levels in ob/ob mice after 30 days of oral dose at 100 mpk b.i.d.; assay type: ADME; conditions: mouse, in vivo, 100 mg/kg, 720 h
[17] = Oral bioavailability in SD rats after 5 mg/kg oral dose; assay type: ADME, organism-based; conditions: Sprague-Dawley, rat, in vivo
[18] = Insulin levels in ob/ob mice after 14 days of oral dose at 30 mpk b.i.d.; assay type: ADME; conditions: mouse, in vivo, 30 mg/kg, 336 h
[19] = Glucose levels in ob/ob mice after 14 days of oral dose at 100 mpk b.i.d.; assay type: ADME; conditions: mouse, in vivo, 100 mg/kg, 336 h
[20] = Glycogen levels in ob/ob mice after 14 days of oral dose at 30 mpk b.i.d.; assay type: ADME; conditions: mouse, in vivo, 30 mg/kg, 336 h
[21] = Compound level in liver in ob/ob mice after 13 days of […] mpk oral dose of compound; assay type: ADME, tissue-based; conditions: mouse, 30 mg/kg, read-out: Level
[22] = Free fatty acid (FFA) levels in ob/ob mice after 14 days of oral dose at 30 mpk b.i.d.; assay type: ADME; conditions: mouse, in vivo, 30 mg/kg, 336 h
[23] = Free fatty acid (FFA) levels in ob/ob mice after 30 days of oral dose at 30 mpk b.i.d.; assay type: ADME; conditions: mouse, in vivo, 30 mg/kg, 720 h
[24] = Free fatty acid (FFA) levels in ob/ob mice after 14 days of oral dose at 100 mpk b.i.d.; assay type: ADME; conditions: mouse, in vivo, 100 mg/kg, 336 h
[25] = Cholesterol levels in ob/ob mice after 30 days of oral dose at 30 mpk b.i.d.; assay type: ADME; conditions: mouse, in vivo, 30 mg/kg, 720 h
[26] = Aspartate aminotransferase /alanine aminotransferase levels in ob/ob mice after 30 days of oral dose at 30 mpk b.i.d.; assay type: ADME; conditions: mouse, in vivo, 30 mg/kg, 720 h
[27] = Aspartate aminotransferase /alanine aminotransferase levels in ob/ob mice after 30 days of oral dose at 100 mpk b.i.d.; assay type: ADME; conditions: mouse, in vivo, 100 mg/kg, 720 h
[28] = Plasma protein binding of tritium labeled compound in human plasma was determined; assay type: ADME, cell-free; conditions: read-out: Protein binding
[29] = Glycogen levels in ob/ob mice after 14 days of oral dose at 100 mpk b.i.d.; assay type: ADME; conditions: mouse, in vivo, 100 mg/kg, 336 h
[30] = HbA1c levels in ob/ob mice after 30 days of oral dose at 100 mpk b.i.d.; conditions: mouse, in vivo, 100 mg/kg, 720 h

Structure (SMILES): Cc1c(NS(C)(=O)=O)cccc1N(Cc1ccccc1)Cc1ccc(Oc2ccc(OCC(=O)O)cc2)cc1
- Weight [1]: 46.6 g
- Level [2]: 1 mequiv/L
- Level [3]: 3330 µg/mL
- Level [4]: 0.02 µg/mL
- Level [5]: 2900 µg/mL
- Level [6]: 1.3 mequiv/L
- Level [7]: 786 units/mL and 282 units/mL
- Level [8]: 420 units/mL

Structure (SMILES): Cc1c(NS(C)(=O)=O)cccc1N(Cc1ccc(Oc2ccc(F)c(OCC(=O)O)c2)cc1)Cc1ccc(F)cc1F
- Weight [9]: 49.2 g
- fraction unbound [10]: 0.003
- Level [11]: 1.7 nmol ofpHB/min/mgof protein
- Level [12]: 2.4 nmol ofpHB/min/mgof protein
- Level [13]: 2250 µg/mL
- Level [14]: 2390 µg/mL
- Level [15]: 2140 µg/mL
- Level [16]: 1630 µg/mL
- bioavailability [17]: 40%
- Level [18]: 0.025 µg/mL
- Level [19]: 2330 µg/mL
- Level [20]: 54.6 mg/g
- concentration at 312 h [21]: 20000 ng/g
- Level [22]: 0.99 mequiv/L
- Level [23]: 0.99 mequiv/L
- Level [24]: 1.01 mequiv/L
- Level [25]: 2660 µg/mL
- Level [26]: 395 units/mL
- Level [27]: 303 units/mL
- fraction unbound [28]: 0.001
- Level [29]: 44.2 mg/g
- Level [30]: 7.7%
